pEC50: −log10 of the molar value. Read-outs that look alike come from different tables or passages of the source.
What was measured:
[1] = biological target: Atlantic cod Ahr1a (Gadus morhua, UniProt A0A6H1Z2L5); experiment: cell-based
[2] = biological target: T1, Atlantic cod Ahr2a (Gadus morhua, UniProt A0A6H1Z3G8); experiment: cell-based
T1 sequence (A0A6H1Z3G8 1-1127): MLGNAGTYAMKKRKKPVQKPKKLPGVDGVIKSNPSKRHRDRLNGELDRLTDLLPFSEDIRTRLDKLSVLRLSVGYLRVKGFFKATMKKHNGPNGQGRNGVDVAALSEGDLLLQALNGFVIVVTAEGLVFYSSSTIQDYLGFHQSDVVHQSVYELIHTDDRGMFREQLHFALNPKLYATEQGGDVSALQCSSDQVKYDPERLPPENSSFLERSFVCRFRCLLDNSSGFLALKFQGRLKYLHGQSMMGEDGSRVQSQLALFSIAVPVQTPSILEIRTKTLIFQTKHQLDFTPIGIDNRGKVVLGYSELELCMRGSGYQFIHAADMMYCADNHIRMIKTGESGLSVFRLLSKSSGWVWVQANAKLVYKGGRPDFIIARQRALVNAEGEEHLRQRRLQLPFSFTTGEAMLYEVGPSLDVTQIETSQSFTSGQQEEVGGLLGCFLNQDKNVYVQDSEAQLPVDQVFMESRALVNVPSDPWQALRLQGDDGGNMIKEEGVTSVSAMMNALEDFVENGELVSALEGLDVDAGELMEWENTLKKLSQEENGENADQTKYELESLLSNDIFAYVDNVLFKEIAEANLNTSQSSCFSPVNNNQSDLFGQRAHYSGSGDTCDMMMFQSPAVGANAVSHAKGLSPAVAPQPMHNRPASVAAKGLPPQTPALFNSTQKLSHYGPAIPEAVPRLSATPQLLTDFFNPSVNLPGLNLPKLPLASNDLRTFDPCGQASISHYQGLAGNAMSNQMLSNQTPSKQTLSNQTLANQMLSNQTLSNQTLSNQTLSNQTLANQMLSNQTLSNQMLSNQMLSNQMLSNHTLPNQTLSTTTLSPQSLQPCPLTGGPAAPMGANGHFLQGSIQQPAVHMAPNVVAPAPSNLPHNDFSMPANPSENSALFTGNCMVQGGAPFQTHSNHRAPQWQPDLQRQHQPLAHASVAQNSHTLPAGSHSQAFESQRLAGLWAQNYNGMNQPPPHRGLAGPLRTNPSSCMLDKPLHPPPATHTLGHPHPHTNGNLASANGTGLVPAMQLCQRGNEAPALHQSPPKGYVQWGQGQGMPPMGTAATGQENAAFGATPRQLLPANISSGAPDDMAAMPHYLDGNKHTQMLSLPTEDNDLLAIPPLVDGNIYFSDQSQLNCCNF

[3] = tested on: rat AHR; parameters: method as in PMID 17941736, PMID 25108069; conditions: H4IIE-luc reporter assay; cited from earlier work
[4] = EC25 of TCDD divided by concentration of PAC giving 25% of TCDD response
[5] = Welch's t-test, Supporting Table S6

Atlantic cod Ahr1a, sequence (A0A6H1Z2L5 1-957): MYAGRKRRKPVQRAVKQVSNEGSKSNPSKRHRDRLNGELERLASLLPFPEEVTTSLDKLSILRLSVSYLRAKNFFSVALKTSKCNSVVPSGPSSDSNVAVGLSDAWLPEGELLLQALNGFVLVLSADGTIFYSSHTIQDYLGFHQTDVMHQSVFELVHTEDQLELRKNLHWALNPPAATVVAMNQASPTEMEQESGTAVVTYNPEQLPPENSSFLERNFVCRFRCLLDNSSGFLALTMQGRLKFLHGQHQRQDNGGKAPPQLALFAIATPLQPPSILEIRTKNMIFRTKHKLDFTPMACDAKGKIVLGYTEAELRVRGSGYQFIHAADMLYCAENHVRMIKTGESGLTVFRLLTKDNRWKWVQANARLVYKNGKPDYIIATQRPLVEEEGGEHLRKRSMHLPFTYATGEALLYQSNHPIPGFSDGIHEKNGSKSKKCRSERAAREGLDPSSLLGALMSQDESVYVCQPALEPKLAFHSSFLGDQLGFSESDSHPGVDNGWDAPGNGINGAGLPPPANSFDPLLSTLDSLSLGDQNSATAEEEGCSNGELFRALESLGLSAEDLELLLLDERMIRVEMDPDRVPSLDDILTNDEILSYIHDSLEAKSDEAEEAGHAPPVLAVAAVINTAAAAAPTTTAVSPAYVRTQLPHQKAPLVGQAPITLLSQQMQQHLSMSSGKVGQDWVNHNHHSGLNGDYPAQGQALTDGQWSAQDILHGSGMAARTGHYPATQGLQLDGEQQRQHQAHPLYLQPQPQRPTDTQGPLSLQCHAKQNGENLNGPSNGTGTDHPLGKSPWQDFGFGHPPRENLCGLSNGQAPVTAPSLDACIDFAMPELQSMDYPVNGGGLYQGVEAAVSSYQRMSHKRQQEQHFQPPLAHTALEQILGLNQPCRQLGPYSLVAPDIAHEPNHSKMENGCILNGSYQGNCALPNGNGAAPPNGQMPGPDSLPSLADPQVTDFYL
Atlantic cod Ahr1a, sequence (A0A8C5CZZ9 1-645 partner): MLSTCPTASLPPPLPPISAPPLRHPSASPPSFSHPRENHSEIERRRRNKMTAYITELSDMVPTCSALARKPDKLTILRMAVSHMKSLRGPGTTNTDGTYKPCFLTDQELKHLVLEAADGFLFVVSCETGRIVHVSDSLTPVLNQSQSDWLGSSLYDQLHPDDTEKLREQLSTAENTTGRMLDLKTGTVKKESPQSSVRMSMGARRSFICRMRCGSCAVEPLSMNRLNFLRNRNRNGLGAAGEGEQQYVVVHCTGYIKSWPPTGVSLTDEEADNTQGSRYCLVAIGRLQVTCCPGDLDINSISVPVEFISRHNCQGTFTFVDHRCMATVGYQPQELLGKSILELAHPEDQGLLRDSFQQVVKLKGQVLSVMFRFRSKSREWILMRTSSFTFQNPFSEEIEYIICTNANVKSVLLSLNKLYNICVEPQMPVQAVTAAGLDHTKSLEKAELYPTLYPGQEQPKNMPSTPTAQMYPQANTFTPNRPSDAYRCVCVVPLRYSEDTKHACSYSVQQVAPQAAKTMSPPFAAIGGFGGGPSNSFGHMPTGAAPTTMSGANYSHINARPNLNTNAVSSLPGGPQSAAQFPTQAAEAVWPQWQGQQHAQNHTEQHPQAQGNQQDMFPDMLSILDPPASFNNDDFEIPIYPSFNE

SMILES | pEC50 ([1]; COS-7 cells, 24 h exposure, read-out: Ahr1a EC50) | Ahr1a REP25 [1, 4] | Efficacy compared to TCDD with Ahr1a [1, 5] | Activation of Ahr1a (agonist or not) ([1]; in vitro transactivation) | Emax ([1]; percent of maximum efficacy determined for TCDD, COS-7 cells, 24 h exposure, None = no agonistic response significantly different from solvent, read-out: Ahr1a Relative Emax (%)) [%] | melting point [°C] | pEC50 ([2]; COS-7 cells, 24 h exposure, read-out: Ahr2a EC50) | Ahr2a REP25 [2, 4] | EC50 ([2]; Supplementary Table S5, read-out: Potency (EC50, nM) Ahr2a) [nM] | Efficacy compared to TCDD via Ahr2a [2, 5] | Activation of Ahr2a (agonist or not) ([2]; in vitro transactivation) | Emax ([2]; percent of maximum efficacy determined for TCDD, COS-7 cells, 24 h exposure, None = no agonistic response significantly different from solvent, read-out: Ahr2a Relative Emax (%)) [%] | EC50 ([1]; Ahr1a EC50 (nM), COS-7 cells, 24 h exposure) [nM] | Emax ([1]; COS-7, read-out: Ahr1a Relative Emax (%)) [%] | pEC50 [3] | EC50 ([2]; Ahr2a EC50 (nM), COS-7 cells, 24 h exposure) [nM] | Emax ([2]; COS-7, read-out: Ahr2a Relative Emax (%)) [%]
COc1cc2ccc3c4ccccc4ccc3c2cc1OC [2,3-DMOC, 2,3-Dimethoxychrysene] | 6.70 | 0.0083 | lower efficacies than TCDD | activated the two Ahrs | 77.5 | 212 to 213.5 | 6.44 | 0.00911 | 359 | lower efficacies in comparison to TCDD | activated the two Ahrs | 55 |  |  |  |  | 
Clc1cc2c(cc1Cl)Oc1cc(Cl)c(Cl)cc1O2 [TCDD, 2,3,7,8-Tetrachlorodibenzo-p-dioxin, reference compound] |  |  |  |  |  |  |  |  |  |  |  |  | 1.7 | 99.7 | 10.74 to 11.10 | 6.2 | 99.4

— article PMC8600679, “Substituted Two- to Five-Ring Polycyclic Aromatic Compounds Are Potent Agonists of Atlantic Cod (Gadus morhua) Aryl Hydrocarbon Receptors Ahr1a and Ahr2a” (Environmental Science & Technology, 2021)
